Source: PubChem BioAssay AID1259407 (Chemical Carcinogenesis Research Information System (CCRIS), 2018)
Calls of active or inactive are those of the source. No rule for the calls is given here.

Tested on: CCRIS mutagenicity, Ames/micronucleus/aberration tests
Assay: CCRIS mutagenicity studies
[1] = Test System: AMES SALMONELLA TYPHIMURIUM, Strain/Indicator: TA98, Metabolic Activation: NONE, Method: STANDARD PLATE
[2] = Test System: AMES SALMONELLA TYPHIMURIUM, Strain/Indicator: TA100, Metabolic Activation: NONE, Method: PREINCUBATION
[3] = Test System: AMES SALMONELLA TYPHIMURIUM, Strain/Indicator: TA102, Metabolic Activation: NONE, Method: STANDARD PLATE
[4] = Test System: AMES SALMONELLA TYPHIMURIUM, Strain/Indicator: TA1535, Metabolic Activation: NONE, Method: STANDARD PLATE
[5] = Test System: AMES SALMONELLA TYPHIMURIUM, Strain/Indicator: TA98, Metabolic Activation: NONE, Method: PREINCUBATION
[6] = Test System: AMES SALMONELLA TYPHIMURIUM, Strain/Indicator: TA100, Metabolic Activation: RAT, LIVER, S-9, AROCLOR 1254, Method: STANDARD PLATE
[7] = Test System: AMES SALMONELLA TYPHIMURIUM, Strain/Indicator: TA100, Metabolic Activation: NONE, Method: STANDARD PLATE

For `CCN(CC)C(=O)/C(Cl)=C(\C)OP(=O)(OC)OC`, the mutagenic call (End Point: IN VITRO CHROMOSOMAL ABERRATIONS, Test System: HUMAN PERIPHERAL BLOOD LYMPHOCYTES, Metabolic Activation: NONE) was “active; positive (structural changes)”, the mutagenic call (Test System: AMES SALMONELLA TYPHIMURIUM, Strain/Indicator: G46, Metabolic Activation: HOST-MEDIATED, Method: STANDARD PLATE) was “active; positive” and the mutagenic call (Test System: AMES SALMONELLA TYPHIMURIUM, Strain/Indicator: TA97A, Metabolic Activation: NONE, Method: STANDARD PLATE) was “inactive; negative”. For the same compound, the mutagenic call (Test System: AMES SALMONELLA TYPHIMURIUM, Strain/Indicator: TA97A, Metabolic Activation: PLANT, HOMOGENATE, S-14, Method: STANDARD PLATE) was “inactive; negative”, the mutagenic call (Test System: AMES SALMONELLA TYPHIMURIUM, Strain/Indicator: TA97A, Metabolic Activation: S-9, Method: STANDARD PLATE) was “inactive; negative” and the mutagenic call [1] was “inactive; negative”. The mutagenic call (Test System: AMES SALMONELLA TYPHIMURIUM, Strain/Indicator: TA98, Metabolic Activation: PLANT, HOMOGENATE, S-14, Method: STANDARD PLATE) was “inactive; negative”, the mutagenic call (Test System: AMES SALMONELLA TYPHIMURIUM, Strain/Indicator: TA98, Metabolic Activation: S-9, Method: STANDARD PLATE) was “inactive; negative” and the mutagenic call [2] was “active; positive”. For the same compound, the mutagenic call (Test System: AMES SALMONELLA TYPHIMURIUM, Strain/Indicator: TA100, Metabolic Activation: PLANT, HOMOGENATE, S-14, Method: STANDARD PLATE) was “inactive; negative”, the mutagenic call (Test System: AMES SALMONELLA TYPHIMURIUM, Strain/Indicator: TA100, Metabolic Activation: S-9, Method: STANDARD PLATE) was “inactive; negative” and the mutagenic call [3] was “inactive; negative”. For the same compound, the mutagenic call (Test System: AMES SALMONELLA TYPHIMURIUM, Strain/Indicator: TA104, Metabolic Activation: NONE, Method: STANDARD PLATE) was “inactive; negative”, the mutagenic call [4] was “inactive; negative” and the mutagenic call (Test System: AMES SALMONELLA TYPHIMURIUM, Strain/Indicator: TA1535, Metabolic Activation: PLANT, HOMOGENATE, S-14, Method: STANDARD PLATE) was “inactive; negative”. For the same compound, the mutagenic call (Test System: AMES SALMONELLA TYPHIMURIUM, Strain/Indicator: TA1535, Metabolic Activation: S-9, Method: STANDARD PLATE) was “inactive; negative”.
For `CC(=O)OCN(C)[N+](=O)[O-]`, the mutagenic call (Test System: AMES SALMONELLA TYPHIMURIUM, Strain/Indicator: TA100, Metabolic Activation: RAT, LIVER, S-9, AROCLOR 1254, Method: PREINCUBATION) was “active; positive”.
In the case of `c1ccc2n[nH]nc2c1`, the mutagenic call (Test System: AMES SALMONELLA TYPHIMURIUM, Strain/Indicator: TA97, Metabolic Activation: HAMSTER, LIVER, S-9, AROCLOR 1254 (10%), Method: PREINCUBATION) is reported as “inactive; negative”, the mutagenic call (Test System: AMES SALMONELLA TYPHIMURIUM, Strain/Indicator: TA97, Metabolic Activation: NONE, Method: PREINCUBATION) is reported as “inactive; negative” and the mutagenic call (Test System: AMES SALMONELLA TYPHIMURIUM, Strain/Indicator: TA97, Metabolic Activation: RAT, LIVER, S-9, AROCLOR 1254 (10%), Method: PREINCUBATION) is reported as “inactive; negative”. The mutagenic call (Test System: AMES SALMONELLA TYPHIMURIUM, Strain/Indicator: TA98, Metabolic Activation: HAMSTER, LIVER, S-9, AROCLOR 1254 (10%), Method: PREINCUBATION) was “inactive; negative”, the mutagenic call [5] was “inactive; negative” and the mutagenic call (Test System: AMES SALMONELLA TYPHIMURIUM, Strain/Indicator: TA98, Metabolic Activation: RAT, LIVER, S-9, AROCLOR 1254 (10%), Method: PREINCUBATION) was “inactive; negative”. The mutagenic call (Test System: AMES SALMONELLA TYPHIMURIUM, Strain/Indicator: TA100, Metabolic Activation: HAMSTER, LIVER, S-9, AROCLOR 1254 (10%), Method: PREINCUBATION) was “inactive; negative”, the mutagenic call [2] was “inactive; negative” and the mutagenic call (Test System: AMES SALMONELLA TYPHIMURIUM, Strain/Indicator: TA100, Metabolic Activation: RAT, LIVER, S-9, AROCLOR 1254 (10%), Method: PREINCUBATION) was “inactive; negative”. The mutagenic call (Test System: AMES SALMONELLA TYPHIMURIUM, Strain/Indicator: TA1535, Metabolic Activation: HAMSTER, LIVER, S-9, AROCLOR 1254 (10%), Method: PREINCUBATION) was “active; positive”, the mutagenic call (Test System: AMES SALMONELLA TYPHIMURIUM, Strain/Indicator: TA1535, Metabolic Activation: NONE, Method: PREINCUBATION) was “inactive; negative” and the mutagenic call (Test System: AMES SALMONELLA TYPHIMURIUM, Strain/Indicator: TA1535, Metabolic Activation: RAT, LIVER, S-9, AROCLOR 1254 (10%), Method: PREINCUBATION) was “active; positive”. The mutagenic call (Test System: E. COLI, Strain/Indicator: WP2 UVRA, Metabolic Activation: MOUSE, LIVER, S-9, AROCLOR 1254, Method: STANDARD PLATE) was “inactive; negative”.
In the case of `CC(=O)NO`, the mutagenic call [1] is reported as “active; positive”, the mutagenic call (Test System: AMES SALMONELLA TYPHIMURIUM, Strain/Indicator: TA98, Metabolic Activation: RAT, LIVER, S-9, Method: STANDARD PLATE) is reported as “active; positive” and the mutagenic call (Test System: AMES SALMONELLA TYPHIMURIUM, Strain/Indicator: TA100, Metabolic Activation: RAT, LIVER, S-9, Method: STANDARD PLATE) is reported as “inactive; negative”.
For `CCn1cc(C(=O)O)c(=O)c2cc(F)c(N3CCN(C)CC3)cc21`, the mutagenic call [3] was “active; positive” and the mutagenic call (Test System: CHINESE HAMSTER V-79, Strain/Indicator: V-79 (HPRT)/6-THIOGUANINE, Metabolic Activation: NONE) was “inactive; negative”.
With `CC(C)CCC[C@@H](C)[C@H]1CC[C@H]2[C@@H]3CC4([C@H]5C[C@@H](Br)CC[C@]5(C)[C@H]3CC[C@]12C)S(=O)(=O)CCS4(=O)=O` the mutagenic call (Test System: AMES SALMONELLA TYPHIMURIUM, Strain/Indicator: TA97A, Metabolic Activation: NONE) was “inactive; negative”, the mutagenic call (Test System: AMES SALMONELLA TYPHIMURIUM, Strain/Indicator: TA97A, Metabolic Activation: RAT, LIVER, S-9, AROCLOR 1254) was “active; positive” and the mutagenic call (Test System: AMES SALMONELLA TYPHIMURIUM, Strain/Indicator: TA98, Metabolic Activation: NONE) was “inactive; negative”. For the same compound, the mutagenic call (Test System: AMES SALMONELLA TYPHIMURIUM, Strain/Indicator: TA100, Metabolic Activation: NONE) was “inactive; negative”, the mutagenic call (Test System: AMES SALMONELLA TYPHIMURIUM, Strain/Indicator: TA100, Metabolic Activation: RAT, LIVER, S-9, AROCLOR 1254) was “inactive; negative” and the mutagenic call (Test System: AMES SALMONELLA TYPHIMURIUM, Strain/Indicator: TA102, Metabolic Activation: NONE) was “active; positive”. The mutagenic call (Test System: AMES SALMONELLA TYPHIMURIUM, Strain/Indicator: TA102, Metabolic Activation: RAT, LIVER, S-9, AROCLOR 1254) was “active; positive”, the mutagenic call (Test System: AMES SALMONELLA TYPHIMURIUM, Strain/Indicator: TA104, Metabolic Activation: NONE) was “active; positive” and the mutagenic call (Test System: AMES SALMONELLA TYPHIMURIUM, Strain/Indicator: TA104, Metabolic Activation: RAT, LIVER, S-9, AROCLOR 1254) was “active; positive”.
`COc1cc2c(c3ccc4ccccc4c13)CCC2=O` was tested, and the mutagenic call [6] was “active; positive”.
For `O=C1OCC(CBr)=C1Br`, the mutagenic call [7] was “active; positive”.
With `[O]=[U](=[O])=[O]` the mutagenic call (Test System: Human bronchial epithelial (BEP2D) cells, Metabolic Activation: None, Method: Morphological transformation) was “active; positive. depleted uranium transformed cell lines exhibited significant chromoso”.
With `Nc1ccc(Cc2ccc(NO)c(Cl)c2)cc1Cl` the mutagenic call [5] was “active; positive” and the mutagenic call [2] was “active; positive”.
`CCc1ccc2c(c1[N+](=O)[O-])C(=O)c1ccccc1C2=O` was tested, and the mutagenic call [1] was “inactive; negative”, the mutagenic call [7] was “inactive; negative” and the mutagenic call [6] was “active; positive”. For the same compound, the mutagenic call [4] was “inactive; negative”, the mutagenic call (Test System: AMES SALMONELLA TYPHIMURIUM, Strain/Indicator: TA1535, Metabolic Activation: RAT, LIVER, S-9, AROCLOR 1254, Method: STANDARD PLATE) was “inactive; negative” and the mutagenic call (Test System: AMES SALMONELLA TYPHIMURIUM, Strain/Indicator: TA1537, Metabolic Activation: NONE, Method: STANDARD PLATE) was “inactive; negative”. The mutagenic call (Test System: AMES SALMONELLA TYPHIMURIUM, Strain/Indicator: TA1538, Metabolic Activation: NONE, Method: STANDARD PLATE) was “inactive; negative”.
With `c1ccc(-c2ccc(CCC3CO3)cc2)cc1` (centres undefined) the mutagenic call [2] was “inactive; negative”, the mutagenic call [7] was “active; positive” and the mutagenic call [4] was “inactive; negative”.
